Data taken from PMC7571145, “Multistep Synthesis and In Vitro Anticancer Evaluation of 2-Pyrazolyl-Estradiol Derivatives, Pyrazolocoumarin-Estradiol Hybrids and Analogous Compounds” (Molecules, 2020).

Key:
[1] = system: DU145 cells; assay: MTT cytotoxicity assay on DU145 prostate cancer cells; format: cell-based; settings: for primary growth inhibitory screen, cell viability, DU145: 2.5 µM, 72 h, mean±SD, untreated control about 100; for IC50: Homo sapiens, DU-145, 72 h, compounds 1-7 µM, mean ± SD, read-out: IC50 on DU145
Experimental: (§1) Cytotoxicity screens were performed to assess the in vitro anticancer activity of the synthesized A-ring-linked 2-pyrazoles of estradiol, the pyrazolocoumarin-estradiol hybrids, and their structurally simplified non-steroidal analogs on various cancerous cell lines such as MCF-7, PC-3, DU145, and HeLa and on non-cancerous MRC-5 fibroblasts. The 2-acetyl-phenol starting materials (4, 5, and 15) were also included for comparison. All compounds were applied in 2.5 µM concentration for 72 h. The obtained cell viability data were used to construct a heat map (Figure 2) in order to select compounds that exert cancer cell line-specific cytotoxicity. […] Furthermore, some compounds discriminated only DU145 cells and could eliminate these type of prostate cancer cells.
(§2) To understand structure-function relationships, we also included the structural analogs of the selected compounds, namely 7a (C-17 acetate of 8a), 8c (C-17 OH counterpart of 7c), and 9a (steroidal pair of 19a) into subsequent analyses. […] For this, compounds were applied on MCF-7, PC-3, DU145, and HeLa and on non-cancerous MRC-5 fibroblasts in various concentrations for 72 h or were treated with cisplatin at different concentrations. On the viability data, dose–response curves were fitted (Figure S1) and IC50 values were calculated accordingly (Table 3). In agreement with the primary cytotoxicity screen (Table S1), the obtained IC50 concentrations clearly indicated which compound was selectively effective on one or more cancer cell lines. […] Typically, acetylated steroidal pyrazoles were less favorable than deacetylated counterparts due to reduced cancer cell selectivity (7c, 10a).
(§3) To evaluate the in vitro pharmacological effects of the synthesized molecules, each compound was first dissolved in cell culture grade DMSO (Sigma) to a final concentration of 10 mM. Using MTT colorimetric assay, the cytotoxicity of these compounds was evaluated on cancerous (MCF-7, HeLa, DU145, PC-3) and non-cancerous (MRC-5) cell lines. Briefly, 5000 cells/well of each cell line were seeded in 96-well plates and were left to grow overnight in a 5% CO2 atmosphere at 37 °C. On the next day, cells were treated with each derivative separately, in case of the primary screen, or only with the selected compounds upon IC50 determination. Cells were incubated with the test compounds for 72 h in a 5% CO2 atmosphere at 37 °C. End point was measured by incubating cells for 1 h with 0.5 mg/mL of MTT reagent (Serva) dissolved in serum free culture medium. The formazan crystals formed by metabolically active cells were later dissolved in DMSO. Optical density of the obtained solutions was measured at 570 nm using a Synergy HTX plate reader. […] The analysis and conclusions were made based on three independent experiments. Normalized data were analyzed and the heat map was constructed using GraphPad Prism 7 software.

[2] = system: HeLa cells; assay: MTT cytotoxicity assay on HeLa cells; format: cell-based; settings: 72 h; for primary growth inhibitory screen, cell viability, HeLa: 2.5 µM, mean±SD, untreated control about 100; for IC50: Homo sapiens, HeLa, compounds 1-7 µM, mean ± SD, read-out: IC50 on HeLa
Experimental: as §1, §2, §3

[3] = system: MCF-7 cells; assay: MTT cytotoxicity assay on MCF-7 cells; format: cell-based; settings: for primary growth inhibitory screen, cell viability, MCF-7: 2.5 µM, 72 h, mean±SD, untreated control about 100; for IC50: Homo sapiens, MCF7, 72 h, compounds 1-7 µM, mean ± SD, read-out: IC50 on MCF-7
Experimental: as §1, §2, §3

[4] = system: PC-3 cells; assay: MTT cytotoxicity assay on PC-3 prostate cancer cells; format: cell-based; settings: for primary growth inhibitory screen, cell viability, PC-3: 2.5 µM, 72 h, mean±SD, untreated control about 100; for IC50: Homo sapiens, PC-3, 72 h, compounds 1-7 µM, mean ± SD, read-out: IC50 on PC-3
Experimental: as §1, §2, §3

[5] = system: MRC-5 fibroblasts; assay: MTT cytotoxicity assay on non-cancerous MRC-5 fibroblasts; format: cell-based; settings: 72 h; for primary growth inhibitory screen, cell viability, MRC-5 / effect on non-cancerous fibroblasts: 2.5 µM; for primary growth inhibitory screen, cell viability, MRC-5 / IC50: MTT; for primary growth inhibitory screen, cell viability, MRC-5: mean±SD, untreated control about 100; for effect on non-cancerous fibroblasts: based on the heat map; for IC50: Homo sapiens, MRC5, compounds 1-7 µM, mean ± SD, read-out: IC50 on MRC-5
Experimental: as §1, §2, §3

| melting point [°C] | Compound | primary growth inhibitory screen, cell viability, DU145 [1] | IC50 [1] [µM] | primary growth inhibitory screen, cell viability, HeLa [2] | IC50 [2] [µM] | primary growth inhibitory screen, cell viability, MCF-7 [3] | IC50 [3] [µM] | primary growth inhibitory screen, cell viability, PC-3 [4] | IC50 [4] [µM] | primary growth inhibitory screen, cell viability, MRC-5 [5] | effect on non-cancerous fibroblasts [5] | IC50 [5] [µM] |
| --- | --- | --- | --- | --- | --- | --- | --- | --- | --- | --- | --- | --- |
| 137 to 138 | O=Cc1cn(-c2ccccc2)nc1-c1cc2c(cc1O)CCCC2 [Compound 17a, 3′-(3-Hydroxy-5,6,7,8-tetrahydronaphthalen-2-yl)-1′-phenyl-1′H-pyrazole-4′-carbaldehyde] | ≥ 100±6.4 | 5.62 ± 1 | 53.7±3.3 | 2.2 ± 1.1 | ≥ 100±2.3 | 5.17 ± 1 | 71.0±20.9 | 4.3 ± 1 | ≥ 100±7.3 | no or very mild effect | 6.26 ± 1.1 |
| 151 to 153 | Cc1ccc(-n2cc(C=O)c(-c3cc4c(cc3O)CCCC4)n2)cc1 [Compound 17b, 3′-(3-Hydroxy-5,6,7,8-tetrahydronaphthalen-2-yl)-1′-(4″-tolyl)-1′H-pyrazole-4′-carbaldehyde] | ≥ 100±16.8 |  | ≥ 100±3.9 |  | 93.2±6.0 |  | ≥ 100±3.0 |  | ≥ 100±14.5 |  |  |
| 182 to 184 | O=Cc1cn(-c2ccc(Cl)cc2)nc1-c1cc2c(cc1O)CCCC2 [Compound 17c, 1′-(4″-Chlorophenyl)-3′-(3-hydroxy-5,6,7,8-tetrahydronaphthalen-2-yl)-1′H-pyrazole-4″-carbaldehyde] | 80.3±10.8 | > 7 | ≥ 100±4.0 | 6.23 ± 1 | 77.5±4.6 | 4.12 ± 1 | 61.9±2.8 | 4.39 ± 1 | ≥ 100±4.0 | no or very mild effect | 5.72 ± 1.1 |
| 135 to 137 | OCc1cn(-c2ccccc2)nc1-c1cc2c(cc1O)CCCC2 [Compound 18a, 3-(4′-(Hydroxymethyl)-1′-phenyl-1′H-pyrazol-3′-yl)-5,6,7,8-tetrahydro-2-naphthol] | 87.0±18.2 |  | ≥ 100±6.5 |  | 98.0±7.1 |  | 91.5±12.9 |  | ≥ 100±0.1 |  |  |
| 163 to 165 | Cc1ccc(-n2cc(CO)c(-c3cc4c(cc3O)CCCC4)n2)cc1 [Compound 18b, 3-(4′-(Hydroxymethyl)-1′-(4″-tolyl)-1′H-pyrazol-3-yl)-5,6,7,8-tetrahydro-2-naphthol] | 45.3±2.5 | 2.7 ± 1.1 | ≥ 100±8.7 | > 7 | ≥ 100±5.3 | > 7 | 99.6±7.7 | > 7 | ≥ 100±2.6 | no or very mild effect | > 7 |
| 154 to 156 | OCc1cn(-c2ccc(Cl)cc2)nc1-c1cc2c(cc1O)CCCC2 [Compound 18c, 3-(1′-(4″-Chlorophenyl)-4′-(hydroxymethyl)-1′H-pyrazol-3′-yl)-5,6,7,8-tetrahydro-2-naphthol] | ≥ 100±4.3 |  | ≥ 100±6.6 |  | ≥ 100±4.7 |  | 90.9±3.0 |  | ≥ 100±2.3 |  |  |
| 221 to 223 | O=c1oc2cc3c(cc2c2nn(-c4ccccc4)cc12)CCCC3 [Compound 19a, 2-Phenyl-7,8,9,10-tetrahydrobenzo[6,7]chromeno[4,3-c]pyrazol-4(2H)-one] | 21.6±0.5 | 1.41 ± 1.1 | ≥ 100±8.7 | > 7 | ≥ 100±3.9 | 6.83 ± 1.1 | 95.4±1.3 | 4.7 ± 1 | ≥ 100±3.0 | no or very mild effect | > 7 |
